Columns and labels:
Experiment in all cases: whole plant or invertebrate
Assay type in all cases: in vivo
[1] = test system: vetch aphid (Megoura viciae); conditions: foliar, 120 h, sprayed broad bean leaf disks, adult aphids, 5 days, read-out: mortality in comparison with untreated controls
Description: For evaluating control of vetch aphid (Megoura viciae) through contact or systemic means the test unit consisted of 24-well-microtiter plates containing broad bean leaf disks.
The compounds were formulated using a solution containing 75% v/v water and 25% v/v DMSO. Different concentrations of formulated compounds were sprayed onto the leaf disks at 2.5 μl, using a custom built micro atomizer, at two replications.
After application, the leaf disks were air-dried and 5 to 8 adult aphids were placed on the leaf disks inside the microtiter plate wells. The aphids were then allowed to suck on the treated leaf disks and were incubated at about 23±1° C. and about 50±5% relative humidity for 5 days. Aphid mortality and fecundity were then visually assessed.

[2] = test system: green peach aphid (Myzus persicae); conditions: 72 h, in aphid diet under artificial membrane, adult aphids, 3 days, read-out: mortality in comparison with untreated controls
From the text: For evaluating control of green peach aphid (Myzus persicae) through systemic means the test unit consisted of 96-well-microtiter plates containing liquid artificial diet under an artificial membrane.
The compounds were formulated using a solution containing 75% v/v water and 25% v/v DMSO. Different concentrations of formulated compounds were pipetted into the aphid diet, using a custom built pipetter, at two replications.
After application, 5 to 8 adult aphids were placed on the artificial membrane inside the microtiter plate wells. The aphids were then allowed to suck on the treated aphid diet and were incubated at about 23±1° C. and about 50±5% relative humidity for 3 days. Aphid mortality and fecundity was then visually assessed.

[3] = test system: Cotton Aphid (Aphis gossypii); conditions: 120 h, infested cotton plants sprayed, after 5 days, read-out: mortality in comparison with untreated controls
Description: (§1) The active compounds were formulated in cyclohexanone as a 10′ 000 ppm solution supplied in 1.3 ml ABgene® tubes. These tubes were inserted into an automated electrostatic sprayer equipped with an atomizing nozzle and they served as stock solutions for which lower dilutions were made in 1:1 (vol:vol) water:aceton. A nonionic surfactant (Kinetic®) was included in the solution at a volume of 0.01% (v/v).
Cotton plants at the cotyledon stage were infested with aphids prior to treatment by placing a heavily infested leaf from the main aphid colony on top of each cotyledon. Aphids were allowed to transfer overnight to accomplish an infestation of 80-100 aphids per plant and the host leaf was removed. The infested plants were then sprayed by an automated electrostatic plant sprayer equipped with an atomizing spray nozzle. The plants were dried in the sprayer fume hood, removed from the sprayer, and then maintained in a growth room under fluorescent lighting in a 24-hr photoperiod at 25° C. and 20-40% relative humidity. Aphid mortality on the treated plants, relative to mortality on untreated control plants, was determined after 5 days.

[4] = test system: Cowpea Aphid (Aphis craccivora); conditions: colonized cowpea plants sprayed, population reduction assessed after 24, 72 and 120 hours, read-out: mortality in comparison with untreated controls
Description: The active compound was dissolved at the desired concentration in a mixture of 1:1 (vol:vol) distilled water:acetone. The test solution was prepared at the day of use. Potted cowpea plants colonized with approximately 100 to 150 aphids of various stages were sprayed after the pest population had been recorded. Population reduction was assessed after 24, 72, and 120 hours.

[5] = test system: Silverleaf Whitefly (Bemisia Argentifolii); conditions: 72 h, sprayed cotton plants, whitefly adults, 3 days after treatment, read-out: mortality in comparison with untreated controls
Description: as §1, with “10,000” for “10′ 000”
Cotton plants at the cotyledon stage (one plant per pot) were sprayed by an automated electrostatic plant sprayer equipped with an atomizing spray nozzle. The plants were dried in the sprayer fume hood and then removed from the sprayer. Each pot was placed into a plastic cup and 10 to 12 whitefly adults (approximately 3 to 5 days old) were introduced. The insects were collected using an aspirator and 0.6 cm, nontoxic Tygon® tubing (R-3603) connected to a barrier pipette tip. The tip, containing the collected insects, was then gently inserted into the soil containing the treated plant, allowing insects to crawl out of the tip to reach the foliage for feeding. Cups were covered with a reusable screened lid (150-micron mesh polyester screen PeCap from Tetko, Inc.). […] Mortality was assessed 3 days after treatment, compared to untreated control plants.

CON=Cc1cccc(-c2cnc(-c3cccnc3)s2)n1 [Compound 1-1, 6-(2-Pyridin-3-yl-thiazol-5-yl)-pyridine-2-carbaldehyde-O-methyloxime]
≥ 75%: mortality at 800 ppm [1] | mortality at 800 ppm [2] | mortality at 300 ppm [3] | mortality at 300 ppm [4] | mortality at 300 ppm [5]

C(=NOc1ccccc1)c1cccc(-c2cnc(-c3cccnc3)s2)n1 [Compound 1-10, 6-(2-Pyridin-3-yl-thiazol-5-yl)-pyridine-2-carbaldehyde-O-phenyloxime]
≥ 75%: mortality at 800 ppm [1] | mortality at 300 ppm [4]

Reference: patent US20150368236A1, “2-(PYRIDIN-3-YL)-5-HETARYL-THIAZOLE COMPOUNDS CARRYING AN IMINE OR IMINE-DERIVED SUBSTITUENT FOR COMBATING INVERTEBRATE PESTS” (BASF SE, priority 2012, published 2015)
